Reference: ChEMBL document CHEMBL1126172, “Modeling of competitive phosphono amino acid NMDA receptor antagonists” (J Med Chem, 1992)

Tests used:
Type in all cases: protein-complex assay
Glutamate NMDA receptor [1] = test: Compound was evaluated for its ability to displace [3H]CPP ligand from N-methyl-D-aspartate glutamate receptor
Glutamate NMDA receptor [2] = test: Displacement of [3H]CPP or [3H]-CGS- 19755 from rat N-methyl-D-aspartate glutamate receptor
Glutamate NMDA receptor [3] = test: Compound was evaluated for its ability to displace [3H]CPP or [3H]-CGS- 19755 ligand from N-methyl-D-aspartate glutamate receptor
Glutamate NMDA receptor [4] = test: Compound was evaluated for its ability to displace [3H]CPP ligand from N-methyl-D-aspartate (NMDA) receptor
Glutamate NMDA receptor [5] = test: Compound was evaluated for its ability to displace [3H]-CGS- 19755 ligand from N-methyl-D-aspartate glutamate receptor
Glutamate NMDA receptor [6] = test: (§1) Compound was evaluated for its ability to displace [3H]CPP or [3H]-CGS- 19755 ligand from N-methyl-D-aspartate (NMDA) receptor
Glutamate NMDA receptor [7] = test: Compound was evaluated for its ability to displace [3H]-CPP ligand from N-methyl-D-aspartate (NMDA) receptor
Glutamate NMDA receptor [8] = test: as §1; remark: listed apart in the source

SMILES	Ki (Glutamate NMDA receptor [2]) [µM]	further results
NC(CCCP(=O)(O)O)C(=O)O (configuration not stated)	< 1	Ki (Glutamate NMDA receptor [1]): 0.26 µM
CC(C)([C@@H]1CCN[C@H](C(=O)O)C1)P(=O)(O)O	> 1	–
NC(CCCCP(=O)(O)O)C(=O)O (configuration not stated)	–	Ki (Glutamate NMDA receptor [3]): > 1 µM; Ki (Glutamate NMDA receptor [4]): 0.042 µM
CC([C@@H]1CCN[C@H](C(=O)O)C1)P(=O)(O)O (some centres not stated)	> 1	–
O=C(O)[C@H]1NCCC[C@H]1CCP(=O)(O)O	> 1	–
C[C@@H]1CN[C@H](C(=O)O)C[C@@H]1CP(=O)(O)O	< 1	–
C[C@@H]1[C@H](CP(=O)(O)O)CCN[C@@H]1C(=O)O	> 1	–
C[C@H]1C[C@@H](CP(=O)(O)O)C[C@@H](C(=O)O)N1	> 1	–
NC(CCc1ccccc1CP(=O)(O)O)C(=O)O (configuration not stated)	> 1	–
O=C(O)[C@@H]1C[C@H](CCCP(=O)(O)O)CCN1	< 1	–
O=C(O)[C@@H]1C[C@H](C/C=C/P(=O)(O)O)CCN1	< 1	Ki (Glutamate NMDA receptor [5]): 0.072 µM
O=C(O)[C@@H]1C[C@H](/C=C/CP(=O)(O)O)CCN1	< 1	Ki (Glutamate NMDA receptor [5]): 0.014 µM
NC(CCCCCP(=O)(O)O)C(=O)O (configuration not stated) [AP-7]	< 1	Ki (Glutamate NMDA receptor [5]): 0.912 µM
C/C(=C\C(N)C(=O)O)CP(=O)(O)O (configuration not stated) [CGP-37849]	–	Ki (Glutamate NMDA receptor [6]): < 1 µM; Ki (Glutamate NMDA receptor [7]): 0.035 µM
O=C(O)[C@@H]1C[C@H](CP(=O)(O)O)CCN1 [SELFOTEL]	–	Ki (Glutamate NMDA receptor [6]): < 1 µM; Ki (Glutamate NMDA receptor [8]): 0.13 µM
